From patent US8735414B2 (priority 2009, dated 2014)
pIC50: −log10 of the molar value.

What was measured:
[1] = system: bicistronic HCV replicon (replicon RNA, GenBank Accession No. AJ242654); assay: HCV Replicon Assay; type: cell-based; conditions: Hepatitis C virus, 72 h, read-out: Replicon IC50

Row | Compound | pIC50 [1] | melting point [°C]
1 | CC(C)NS(=O)(=O)c1cnc(-c2c(C#N)c3cc(Cl)ccc3n2C(C)C)nc1 [compound 120, 2-[5-chloro-3-cyano-1-(propan-2-yl)-1H-indol-2-yl]-N-(propan-2-yl)pyrimidine-5-sulfonamide] | > 6.30 | 202 to 220
2 | CCc1cc2c(cc1F)c(C(N)=O)c(-c1ccc(S(=O)(=O)N[C@@H](C)C(F)(F)F)cn1)n2-c1cc(Cl)ccn1 [compound 1048, 1-(4-chloropyridin-2-yl)-6-ethyl-5-fluoro-2-(5-{[(2S)-1,1,1-trifluoropropan-2-yl]sulfamoyl}pyridin-2-yl)-1H-indole-3-carboxamide] | 5.70 to 6.30 | 200 to 204
3 | Cc1cc(-c2c(C#N)c3cc(F)ccc3n2-c2ccccn2)ncc1S(=O)(=O)N[C@@H](C)C(F)(F)F [compound 847, 6-[3-cyano-5-fluoro-1-(pyridin-2-yl)-1H-indol-2-yl]-4-methyl-N-[(2S)-1,1,1-trifluoropropan-2-yl]pyridine-3-sulfonamide] | > 6.30 | 180 to 186
4 | CCc1cc2c(cc1F)c(C#N)c(-c1ccc(S(=O)(=O)N[C@@H](C)C(F)(F)F)cn1)n2-c1ncccc1Cl [compound 965, 6-[1-(3-chloropyridin-2-yl)-3-cyano-6-ethyl-5-fluoro-1H-indol-2-yl]-N-[(2S)-1,1,1-trifluoropropan-2-yl]pyridine-3-sulfonamide] | > 6.30 | 200 to 208
5 | CCc1ccc2c(C#N)c(-c3ccc(S(=O)(=O)N[C@H](C)C(F)(F)F)cn3)n(C3CCCC3)c2c1 [compound 311, 6-(3-cyano-1-cyclopentyl-6-ethyl-1H-indol-2-yl)-N-[(2R)-1,1,1-trifluoropropan-2-yl]pyridine-3-sulfonamide] | > 6.30 | 185 to 186
6 | CCc1cc2c(cc1F)c(C#N)c(-c1ccc(S(=O)(=O)N[C@@H](C)C(F)(F)F)cn1)n2-c1cncnc1 [compound 963, 6-[3-cyano-6-ethyl-5-fluoro-1-(pyrimidin-5-yl)-1H-indol-2-yl]-N-[(2S)-1,1,1-trifluoropropan-2-yl]pyridine-3-sulfonamide] | > 6.30 | 250 to 257
7 | C[C@H](NS(=O)(=O)c1ccc(-c2c(C#N)c3cc(F)c(C4CC4)cc3n2C2CCCC2)nc1)C(F)(F)F [compound 661, 6-(3-cyano-1-cyclopentyl-6-cyclopropyl-5-fluoro-1H-indol-2-yl)-N-[(2S)-1,1,1-trifluoropropan-2-yl]pyridine-3-sulfonamide] | > 6.30 | 189 to 190
8 | CC(C)n1c(-c2ccc(S(=O)(=O)N[C@@H](C)C(F)(F)F)cn2)c(C#N)c2c(F)cc(OC(F)F)cc21 [compound 784, 6-[3-cyano-6-(difluoromethoxy)-4-fluoro-1-(propan-2-yl)-1H-indol-2-yl]-N-[(2S)-1,1,1-trifluoropropan-2-yl]pyridine-3-sulfonamide] | > 6.30 | 193 to 194
9 | Cc1cc2c(cc1F)c(C#N)c(-c1ccc(S(=O)(=O)N[C@H](C)C(F)(F)F)cn1)n2C1CCCCC1 [compound 680, 6-(3-cyano-1-cyclohexyl-5-fluoro-6-methyl-1H-indol-2-yl)-N-[(2R)-1,1,1-trifluoropropan-2-yl]pyridine-3-sulfonamide] | > 6.30 | 224 to 229
10 | CC(C)n1c(-c2ncc(S(=O)(=O)NC(CF)CF)cn2)c(C#N)c2ccc(OC(F)F)cc21 [compound 137, 2-[3-cyano-6-(difluoromethoxy)-1-(propan-2-yl)-1H-indol-2-yl]-N-(1,3-difluoropropan-2-yl)pyrimidine-5-sulfonamide] | > 6.30 | 219 to 221
11 | CC(C)NS(=O)(=O)c1cnc(-c2c(C(N)=O)c3ccc(OC(F)(F)F)cc3n2C2CCC2)nc1 [compound 781, 1-cyclobutyl-2-[5-(propan-2-ylsulfamoyl)pyrimidin-2-yl]-6-(trifluoromethoxy)-1H-indole-3-carboxamide] | > 6.30 | 222 to 223
12 | Cc1ccc2c(c1)c(C#N)c(-c1ccc(S(=O)(=O)N[C@H](C)C(F)(F)F)cn1)n2C1CCC1 [compound 484, 6-(3-cyano-1-cyclobutyl-5-methyl-1H-indol-2-yl)-N-[(2R)-1,1,1-trifluoropropan-2-yl]pyridine-3-sulfonamide] | > 6.30 | 134 to 142
13 | C[C@H](NS(=O)(=O)c1ccc(-c2c(C#N)c3ccc(C4CC4)cc3n2C2CCC2)nc1)C1CC1 [compound 236, 6-(3-cyano-1-cyclobutyl-6-cyclopropyl-1H-indol-2-yl)-N-[(1S)-1-cyclopropylethyl]pyridine-3-sulfonamide] | > 6.30 | 170 to 176
14 | CS(=O)(=O)Nc1ccc(-c2c(C#N)c3ccc(C4CC4)cc3n2C2CCC2)cn1 [compound 287, N-[5-(3-cyano-1-cyclobutyl-6-cyclopropyl-1H-indol-2-yl)pyridin-2-yl]methanesulfonamide] | 5.70 to 6.30 | 239 to 241
15 | Cc1ccc2c(C#N)c(-c3ccc(NS(=O)(=O)C4CC4)cn3)n(C3CCC3)c2c1 [compound 297, N-[6-(3-cyano-1-cyclobutyl-6-methyl-1H-indol-2-yl)pyridin-3-yl]cyclopropanesulfonamide] | 5.70 to 6.30 | 200 to 205
16 | C[C@@H](NS(=O)(=O)c1ccc(-c2c(C#N)c3ccc(F)cc3n2C2CCC2)nc1)C(F)(F)F [compound 215, 6-(3-cyano-1-cyclobutyl-6-fluoro-1H-indol-2-yl)-N-[(2R)-1,1,1-trifluoropropan-2-yl]pyridine-3-sulfonamide] | 5.70 to 6.30 | 178 to 180
17 | Cc1ccc2c(c1)c(C#N)c(-c1ncc(S(=O)(=O)N[C@@H](C)C(F)(F)F)cn1)n2C1CCC1 [compound 414, 2-(3-cyano-1-cyclobutyl-5-methyl-1H-indol-2-yl)-N-[(2S)-1,1,1-trifluoropropan-2-yl]pyrimidine-5-sulfonamide] | > 6.30 | 190 to 195
18 | COC(=O)c1c(-c2ccc(S(=O)(=O)N[C@@H](C)C(F)(F)F)cn2)n(C2CCCCC2)c2ccc(F)cc12 [compound 717, methyl 1-cyclohexyl-5-fluoro-2-(5-{[(2S)-1,1,1-trifluoropropan-2-yl]sulfamoyl}pyridin-2-yl)-1H-indole-3-carboxylate] | 5.70 to 6.30 | 232 to 240
19 | N#Cc1c(-c2ccc(S(=O)(=O)NC(CF)CF)cn2)n(C2CCC2)c2ccc(OC(F)(F)F)cc12 [compound 25, 6-[3-cyano-1-cyclobutyl-5-(trifluoromethoxy)-1H-indol-2-yl]-N-(1,3-difluoropropan-2-yl)pyridine-3-sulfonamide] | 5.70 to 6.30 | 179 to 182
20 | Cc1cc2c(cc1F)c(C(N)=O)c(-c1ccc(S(=O)(=O)N[C@@H](C)C(F)(F)F)cn1)n2-c1ncccc1F [compound 902, 5-fluoro-1-(3-fluoropyridin-2-yl)-6-methyl-2-(5-{[(2S)-1,1,1-trifluoropropan-2-yl]sulfamoyl}pyridin-2-yl)-1H-indole-3-carboxamide] | 5.70 to 6.30 | 130 to 138
21 | CCc1cc2c(cc1F)c(C#N)c(-c1ccc(S(=O)(=O)N[C@@H](C)C(F)(F)F)cn1)n2-c1nccs1 [compound 935, 6-[3-cyano-6-ethyl-5-fluoro-1-(1,3-thiazol-2-yl)-1H-indol-2-yl]-N-[(2S)-1,1,1-trifluoropropan-2-yl]pyridine-3-sulfonamide] | > 6.30 | 187 to 191
22 | CC(C)NS(=O)(=O)c1cnc(-c2c(C#N)c3ccc(F)cc3n2CC2CC2)nc1 [compound 139, 2-[3-cyano-1-(cyclopropylmethyl)-6-fluoro-1H-indol-2-yl]-N-(propan-2-yl)pyrimidine-5-sulfonamide] | 5.70 to 6.30 | 218 to 219
23 | CC(C)NS(=O)(=O)c1cnc(-c2c(C#N)c3ccc(F)cc3n2C2CCC2)nc1 [compound 138, 2-(3-cyano-1-cyclobutyl-6-fluoro-1H-indol-2-yl)-N-(propan-2-yl)pyrimidine-5-sulfonamide] | 5.70 to 6.30 | 193 to 195
24 | [2H]C([2H])([2H])c1cc2c(cc1F)c(C#N)c(-c1ccc(S(=O)(=O)N[C@@]([2H])(C)C(F)(F)F)cn1)n2C1CCC1 [compound 1114, 6-[3-cyano-1-cyclobutyl-5-fluoro-6-(1,1,1-trideuterium)methyl-1H-indol-2-yl]-N-[(2S)-1,1,1-trifluoro(2-deuterium)propan-2-yl]pyridine-3-sulfonamide] | > 6.30 | 213 to 215
25 | C[C@H](NS(=O)(=O)c1cnc(-c2c(C#N)c3ccc(CC(F)F)cc3n2CC2CC2)nc1)C(F)(F)F [compound 622, 2-[3-cyano-1-(cyclopropylmethyl)-6-(2,2-difluoroethyl)-1H-indol-2-yl]-N-[(2S)-1,1,1-trifluoropropan-2-yl]pyrimidine-5-sulfonamide] | > 6.30 | 195 to 205
26 | CC(C)NS(=O)(=O)c1cnc(-c2c(C#N)c3cc(Cl)ccc3n2C2CCCCC2)nc1 [compound 97, 2-(5-chloro-3-cyano-1-cyclohexyl-1H-indol-2-yl)-N-(propan-2-yl)pyrimidine-5-sulfonamide] | 5.70 to 6.30 | 210 to 215
27 | COc1ccc2c(c1)c(C#N)c(-c1ncc(S(=O)(=O)NC(CF)CF)cn1)n2C1CCC1 [compound 551, 2-(3-cyano-1-cyclobutyl-5-methoxy-1H-indol-2-yl)-N-(1,3-difluoropropan-2-yl)pyrimidine-5-sulfonamide] | > 6.30 | 217 to 219
28 | CC(=O)N([C@H](C)C(F)(F)F)S(=O)(=O)c1ccc(-c2c(C#N)c3cc(F)c(C)cc3n2C2CCCC2)nc1 [compound 709, N-{[6-(3-cyano-1-cyclopentyl-5-fluoro-6-methyl-1H-indol-2-yl)pyridin-3-yl]sulfonyl}-N-[(2R)-1,1,1-trifluoropropan-2-yl]acetamide] | > 6.30 | 162 to 163
